# Measured values as given in patent US10407425B2, “Indazole inhibitors of the Wnt signal pathway and therapeutic uses thereof” (Samumed, LLC, priority 2012, dated 2019).
# Test system: Wnt activity
# Assay: Wnt activity reporter assay (SP5 promoter firefly luciferase in SW480 cells)
# Assay type: cell-based
# Settings: Homo sapiens; SW480 cells bearing SP5 promoter luciferase reporter; 24 h after compound addition; read-out: Wnt inhibition
row,Compound,IC50 [nM]
1,"c1cc(-c2cncc3[nH]c(-c4n[nH]c5ccc(-c6cncc(CN7CCCC7)c6)cc45)nc23)ccn1 [Compound 163, 7-(Pyridin-4-yl)-2-(5-(5-(pyrrolidin-1-ylmethyl)pyridin-3-yl)-1H-indazol-3-yl)-3H-imidazo[4,5-c]pyridine]",296
2,"CN1CCN(c2cncc3[nH]c(-c4n[nH]c5ccc(-c6cncc(NC(=O)C7CCCCC7)c6)cc45)nc23)CC1 [Compound 263, N-(5-(3-(7-(4-Methylpiperazin-1-yl)-3H-imidazo[4,5-c]pyridin-2-yl)-1H-indazol-5-yl)pyridin-3-yl)cyclohexanecarboxamide]",86
